Measurements from article PMC8112388 (Inorganic chemistry, 2021).

Biological target: human serum albumin (HSA) (Homo sapiens, UniProt P02768)
Experiment: proton relaxation enhancement titration
Assay type: binding
Conditions: read-out: KD(HSA)

human serum albumin (HSA), sequence (P02768 25-609): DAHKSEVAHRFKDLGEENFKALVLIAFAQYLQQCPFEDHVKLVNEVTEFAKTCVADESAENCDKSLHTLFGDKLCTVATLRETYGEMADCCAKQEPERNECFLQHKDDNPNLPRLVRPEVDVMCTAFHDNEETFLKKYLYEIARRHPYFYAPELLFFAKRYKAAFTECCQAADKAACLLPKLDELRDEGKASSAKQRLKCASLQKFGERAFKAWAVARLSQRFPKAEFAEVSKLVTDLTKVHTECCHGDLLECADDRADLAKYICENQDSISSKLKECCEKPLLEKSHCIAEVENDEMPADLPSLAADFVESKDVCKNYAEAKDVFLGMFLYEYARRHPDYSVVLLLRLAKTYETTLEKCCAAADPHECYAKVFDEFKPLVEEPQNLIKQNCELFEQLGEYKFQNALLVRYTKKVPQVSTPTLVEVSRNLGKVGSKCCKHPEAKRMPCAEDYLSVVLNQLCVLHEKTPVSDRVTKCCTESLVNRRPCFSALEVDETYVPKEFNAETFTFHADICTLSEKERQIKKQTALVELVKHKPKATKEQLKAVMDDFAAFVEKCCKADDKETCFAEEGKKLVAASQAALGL

Kd: 28 ± 1 µM
Substance: MnPyC3A–BPEN [Mn(3)]
